From the supplement of paper PMC11061612

Experiments:
Experiment in all cases: Bliss excess, mean over the matrix (fraction); higher = more synergy
COLO-792 (Melanoma) = test system: COLO-792 (Melanoma)
Procedure, shortened: (§1)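 Bliss excess equals the observed combination effect minus the expected value EA + EB − EA·EB, where EA and EB are the effects of each agent alone. Combination Emax is the second-highest inhibition within the matrix. Inhibition was scaled from CellTiter-Glo 2.0 luminescence, with 0 set by vehicle wells and 1 by blank wells, after 72 hours of two-drug dosing of cells plated in 1536-well plates.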

[1] = test system: DMS-53 (Small Cell Lung Carcinoma)
Procedure, shortened: as §1

[2] = test system: EPLC-272H (Other Solid Carcinomas)
Procedure, shortened: as §1

[3] = test system: ESO26 (Esophageal Adenocarcinoma)
Procedure, shortened: as §1

EW-7 (Ewing's Sarcoma) = test system: EW-7 (Ewing's Sarcoma)
Procedure, shortened: as §1

HCC70 (Breast Carcinoma) = test system: HCC70 (Breast Carcinoma)
Procedure, shortened: as §1

IM-9 (Non-Cancerous) = test system: IM-9 (Non-Cancerous)
Procedure, shortened: as §1

[4] = test system: JHH-2 (Hepatocellular Carcinoma)
Procedure, shortened: as §1

[5] = test system: JHU-022 (Oral Cavity Carcinoma)
Procedure, shortened: as §1

[6] = test system: Jurkat (T-Lymphoblastic Leukemia)
Procedure, shortened: as §1

KP-N-YN (Neuroblastoma) = test system: KP-N-YN (Neuroblastoma)
Procedure, shortened: as §1

[7] = test system: LS-411N (Colorectal Carcinoma)
Procedure, shortened: as §1

NB13 (Neuroblastoma) = test system: NB13 (Neuroblastoma)
Procedure, shortened: as §1

[8] = test system: NCI-H1651 (Lung Adenocarcinoma)
Procedure, shortened: as §1

[9] = test system: NCI-H1703 (Squamous Cell Lung Carcinoma)
Procedure, shortened: as §1

[10] = test system: NCI-H441 (Lung Adenocarcinoma)
Procedure, shortened: as §1

[11] = test system: OACp4C (Esophageal Adenocarcinoma)
Procedure, shortened: as §1

PEO1 (Ovarian Carcinoma) = test system: PEO1 (Ovarian Carcinoma)
Procedure, shortened: as §1

RH-41 (Rhabdomyosarcoma) = test system: RH-41 (Rhabdomyosarcoma)
Procedure, shortened: as §1

[12] = test system: SK-HEP-1 (Hepatocellular Carcinoma)
Procedure, shortened: as §1

| SMILES | Bliss excess (COLO-792 (Melanoma)) | Bliss excess [1] | Bliss excess [2] | Bliss excess [3] | Bliss excess (EW-7 (Ewing's Sarcoma)) | Bliss excess (HCC70 (Breast Carcinoma)) | Bliss excess (IM-9 (Non-Cancerous)) | Bliss excess [4] | Bliss excess [5] | Bliss excess [6] | Bliss excess (KP-N-YN (Neuroblastoma)) | Bliss excess [7] | Bliss excess (NB13 (Neuroblastoma)) | Bliss excess [8] | Bliss excess [9] | Bliss excess [10] | Bliss excess [11] | Bliss excess (PEO1 (Ovarian Carcinoma)) | Bliss excess (RH-41 (Rhabdomyosarcoma)) | Bliss excess [12] |
| --- | --- | --- | --- | --- | --- | --- | --- | --- | --- | --- | --- | --- | --- | --- | --- | --- | --- | --- | --- | --- |
| CC(=O)c1c(C)c2cnc(Nc3ccc(N4CCNCC4)cn3)nc2n(C2CCCC2)c1=O [Palbociclib] + CC1(C)CCC(CN2CCN(c3ccc(C(=O)NS(=O)(=O)c4ccc(NCC5CCOCC5)c([N+](=O)[O-])c4)c(Oc4cnc5[nH]ccc5c4)c3)CC2)=C(c2ccc(Cl)cc2)C1 [Venetoclax] (first compound max 10 µM, 7x7, partner max 1 µM) | 0.0153 | 0.0325 | -0.0106 | -0.0364 | 0.0071 | -0.0356 | 0.0389 | 0.0031 | -0.0613 | 0.0157 | -0.0844 | -0.0247 | -0.103 | -0.038 | 0.0004 | -0.0237 | -0.0167 | -0.0062 | -0.0019 | -0.167 |
| CC1(C)CCC(CN2CCN(c3ccc(C(=O)NS(=O)(=O)c4ccc(NCC5CCOCC5)c([N+](=O)[O-])c4)c(Oc4cnc5[nH]ccc5c4)c3)CC2)=C(c2ccc(Cl)cc2)C1 [Venetoclax] + C=CCn1c(=O)c2cnc(Nc3ccc(N4CCN(C)CC4)cc3)nc2n1-c1cccc(C(C)(C)O)n1 [AZD1775] (first compound max 1 µM, partner max 1 µM) | 0.021 | 0.0804 | -0.025 | -0.0373 | 0.0406 | 0.0562 | 0.0228 | 0.0531 | -0.0218 | -0.0183 | 0.0109 | -0.0856 | 0.078 | -0.0218 | 0.009 | 0.002 | -0.03 | -0.0325 | 0.0778 | -0.0252 |
| NC1(C(=O)N[C@@H](CCO)c2ccc(Cl)cc2)CCN(c2ncnc3[nH]ccc23)CC1 [Capivasertib] + CCN(CCO)CCCOc1ccc2c(Nc3cc(CC(=O)Nc4cccc(F)c4)[nH]n3)ncnc2c1 [AZD2811] (first compound max 10 µM, 7x7, partner max 1 µM) | 0.0486 | 0.0225 | 0.0027 | -0.0308 | 0.0251 | -0.0506 | -0.0686 | -0.0437 | -0.0261 | -0.0289 | -0.0515 | -0.0556 | -0.007 | -0.0381 | -0.0237 | -0.0425 | -0.0332 | -0.0134 | 0.0097 | -0.0553 |
| COc1nnc2ccc(N3CCC(c4ccc(OCCN5CCN(C)C(=O)[C@H]5C)cc4)CC3)nn12 [AZD5153] + C[C@@H]1COCCN1C2=NC(=NC(=C2)C3(CC3)[S@](=N)(=O)C)C4=C5C=CNC5=NC=C4 [AZD6738] (first compound max 1 µM, 7x7, partner max 10 µM) | 0.0774 | 0.037 | -0.0629 | 0.0343 | 0.034 | 0.015 | -0.0697 | -0.0066 | -0.0134 | 0.0601 | -0.0174 | 0.0754 | -0.0149 | 0.0178 | 0.02 | 0.0192 | 0.0085 | 0.0911 | 0.0514 | -0.0522 |
| COc1nnc2ccc(N3CCC(c4ccc(OCCN5CCN(C)C(=O)[C@H]5C)cc4)CC3)nn12 [AZD5153] + Cn1cnc2c(F)c(Nc3ccc(Br)cc3Cl)c(C(=O)NOCCO)cc21 [Selumetinib] (first compound max 1 µM, 7x7, partner max 10 µM) | -0.055 | -0.0043 | 0.0173 | -0.0727 | -0.032 | 0.0982 | 0.0322 | 0.0024 | -0.0807 | -0.0326 | -0.0967 | 0.0602 | -0.0616 | -0.0319 | -0.0065 | -0.0338 | 0.101 | -0.0509 | -0.0176 | -0.0764 |
| COc1cccc(OCCCN)c1-c1cc(Nc2cnc(C#N)cn2)n[nH]1 [Prexasertib] + O=C(c1cc(Cc2n[nH]c(=O)c3ccccc23)ccc1F)N1CCN(C(=O)C2CC2)CC1 [Olaparib] (first compound max 1 µM, 7x7, partner max 10 µM) | 0.0173 | -0.0473 | -0.0631 | -0.0191 | -0.0465 | -0.0503 | 0.0046 | -0.0428 | -0.0537 | -0.0054 | -0.245 | -0.271 | -0.0317 | -0.0471 | -0.0537 | -0.101 | -0.0222 | -0.0183 | -0.061 | -0.0127 |
| CCN(CCO)CCCOc1ccc2c(Nc3cc(CC(=O)Nc4cccc(F)c4)[nH]n3)ncnc2c1 [AZD2811] + C[C@@H]1COCCN1C2=NC(=NC(=C2)C3(CC3)[S@](=N)(=O)C)C4=C5C=CNC5=NC=C4 [AZD6738] (first compound max 1 µM, 7x7, partner max 10 µM) | 0.0336 | -0.0357 | 0.0137 | -0.0427 | -0.0469 | -0.131 | -0.0441 | -0.0196 | -0.0357 | 0.0336 | -0.0751 | -0.0366 | -0.0727 | -0.0555 | -0.0148 | -0.0324 | 0 | -0.0718 | -0.0477 | -0.0397 |
| CC(=O)c1c(C)c2cnc(Nc3ccc(N4CCNCC4)cn3)nc2n(C2CCCC2)c1=O [Palbociclib] + Cn1cnc2c(F)c(Nc3ccc(Br)cc3Cl)c(C(=O)NOCCO)cc21 [Selumetinib] (first compound max 10 µM, 7x7, partner max 10 µM) | -0.0127 | -0.0207 | 0.024 | 0.0104 | 0.0709 | 0.055 | 0.0248 | 0.0347 | 0.0858 | -0.0297 | -0.0253 | 0.0131 | -0.0391 | -0.0391 | 0.0303 | 0.0506 | -0.0359 | -0.0055 | -0.0076 | -0.114 |
| CS(=O)(=O)CCNCc1ccc(-c2ccc3ncnc(Nc4ccc(OCc5cccc(F)c5)c(Cl)c4)c3c2)o1 [Lapatinib] + C[C@@H](Oc1cc(-c2cnn(C3CCNCC3)c2)cnc1N)c1c(Cl)ccc(F)c1Cl [Crizotinib] (first compound max 10 µM, 7x7, partner max 10 µM) | -0.0237 | -0.0205 | 0.0191 | -0.0293 | -0.0465 | -0.0208 | -0.0378 | -0.0831 | -0.0541 | 0.0331 | -0.0084 | -0.033 | -0.0778 | -0.0331 | -0.0733 | -0.0412 | -0.0355 | -0.0422 | -0.0054 | -0.0259 |
| COc1nnc2ccc(N3CCC(c4ccc(OCCN5CCN(C)C(=O)[C@H]5C)cc4)CC3)nn12 [AZD5153] + CC1(C)CCC(CN2CCN(c3ccc(C(=O)NS(=O)(=O)c4ccc(NCC5CCOCC5)c([N+](=O)[O-])c4)c(Oc4cnc5[nH]ccc5c4)c3)CC2)=C(c2ccc(Cl)cc2)C1 [Venetoclax] (first compound max 1 µM, 7x7, partner max 1 µM) | -0.0162 | -0.0406 | -0.0378 | -0.0776 | -0.0122 | -0.0013 | 0.0394 | -0.0068 | -0.0043 | -0.0444 | -0.0809 | -0.0573 | -0.137 | -0.0338 | -0.0404 | -0.0137 | -0.0242 | -0.0771 | 0.0374 | -0.0153 |
| NC1(C(=O)N[C@@H](CCO)c2ccc(Cl)cc2)CCN(c2ncnc3[nH]ccc23)CC1 [Capivasertib] + COc1nnc2ccc(N3CCC(c4ccc(OCCN5CCN(C)C(=O)[C@H]5C)cc4)CC3)nn12 [AZD5153] (first compound max 10 µM, 7x7, partner max 1 µM) | 0.133 | -0.0195 | -0.0025 | 0.0358 | -0.0004 | 0.0422 | -0.0708 | 0.0064 | 0.0019 | 0.0593 | -0.0718 | 0.11 | 0.0532 | -0.0361 | 0.0357 | -0.006 | 0.0153 | 0.0529 | 0.0198 | -0.0784 |
| Cc1c2c(nn1C)CSCc1cc(n(C)n1)CSc1cc(c3ccccc3c1)OCCCc1c(C(=O)O)n(C)c3c-2c(Cl)ccc13 [AZD5991] + Cn1cnc2c(F)c(Nc3ccc(Br)cc3Cl)c(C(=O)NOCCO)cc21 [Selumetinib] (first compound max 1 µM, 7x7, partner max 3 µM) | 0.0234 | 0.0572 | 0.0197 | 0.0199 | 0.0096 | 0.099 | 0.0092 | -0.0154 | 0.0466 | 0.0294 | -0.0059 | 0.0493 | 0.045 | -0.0165 | -0.0087 | -0.0311 | 0.143 | 0.0027 | -0.0293 | -0.0484 |
| CC1(C)CCC(CN2CCN(c3ccc(C(=O)NS(=O)(=O)c4ccc(NCC5CCOCC5)c([N+](=O)[O-])c4)c(Oc4cnc5[nH]ccc5c4)c3)CC2)=C(c2ccc(Cl)cc2)C1 [Venetoclax] + C1CN(CCC1(C(=O)N[C@@H](CCO)C2=CC=C(C=C2)Cl)N)C3=NC=NC4=C3C=CN4 [Capivasertib] (first compound max 1 µM, 7x7, partner max 3 µM) | -0.0203 | 0.0707 | -0.0465 | -0.0751 | -0.0149 | -0.0437 | 0.0533 | 0.0139 | -0.0729 | -0.016 | -0.0573 | -0.0139 | -0.0288 | -0.0184 | 0.0192 | -0.0707 | -0.0062 | -0.0564 | 0.0441 | -0.0525 |
| NC1(C(=O)N[C@@H](CCO)c2ccc(Cl)cc2)CCN(c2ncnc3[nH]ccc23)CC1 [Capivasertib] + C[C@@H]1COCCN1C2=NC(=NC(=C2)C3(CC3)[S@](=N)(=O)C)C4=C5C=CNC5=NC=C4 [AZD6738] (first compound max 10 µM, 7x7, partner max 10 µM) | 0.0487 | -0.0279 | -0.0353 | -0.0364 | 0.0021 | -0.0586 | -0.0514 | -0.0651 | -0.041 | -0.0403 | -0.0395 | -0.0605 | -0.0823 | -0.0528 | -0.0292 | -0.0011 | -0.0402 | -0.0225 | -0.0389 | -0.0744 |
